Tests used:
Assay in all cases: relative viability (nuclei count vs DMSO), 5 days (fraction); higher = more cells survive
Quizartinib + Decitabine = compound: CC(C)(C)c1cc(NC(=O)Nc2ccc(-c3cn4c(n3)sc3cc(OCCN5CCOCC5)ccc34)cc2)no1 [Quizartinib] + Nc1ncn([C@H]2C[C@H](O)[C@@H](CO)O2)c(=O)n1 [Decitabine] (partner 2 µM)
How it was run: (§1)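 Relative viability equals treated-well nuclei counts divided by vehicle-well nuclei counts. Counts came from 4× images of lung cancer cell lines grown in 1536-well plates for 5 days after pin-tool dosing on the day after seeding. Dosing used one drug alone or a fixed anchor-drug dose plus five library-drug doses (not always all listed) in √10 steps, and values are medians of duplicate plates.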

YM155 + Trametinib = compound: COCC[n+]1c2c(n(Cc3cnccn3)c1C)C(=O)c1ccccc1C2=O [YM155] + CC(=O)Nc1cccc(-n2c(=O)n(C3CC3)c(=O)c3c(Nc4ccc(I)cc4F)n(C)c(=O)c(C)c32)c1 [Trametinib] (partner 0.02 µM)
How it was run: as §1

YM155 + AZD7762 = compound: COCC[n+]1c2c(n(Cc3cnccn3)c1C)C(=O)c1ccccc1C2=O [YM155] + NC(=O)Nc1cc(-c2cccc(F)c2)sc1C(=O)N[C@H]1CCCNC1 [AZD7762] (partner 0.2 µM)
How it was run: as §1

Quizartinib + Pictilisib = compound: CC(C)(C)c1cc(NC(=O)Nc2ccc(-c3cn4c(n3)sc3cc(OCCN5CCOCC5)ccc34)cc2)no1 [Quizartinib] + CS(=O)(=O)N1CCN(Cc2cc3nc(-c4cccc5[nH]ncc45)nc(N4CCOCC4)c3s2)CC1 [Pictilisib] (partner 1 µM)
How it was run: as §1

Cell Line | relative viability (Quizartinib + Decitabine; first compound 0.001 µM) | relative viability (Quizartinib + Decitabine; first compound 0.003162 µM) | relative viability (Quizartinib + Decitabine; first compound 0.01 µM) | relative viability (Quizartinib + Decitabine; first compound 0.03162 µM) | relative viability (Quizartinib + Decitabine; first compound 0.1 µM) | relative viability (YM155 + Trametinib; first compound 0.002 µM) | relative viability (YM155 + Trametinib; first compound 0.006325 µM) | relative viability (YM155 + Trametinib; first compound 0.02 µM) | relative viability (YM155 + Trametinib; first compound 0.06325 µM) | relative viability (YM155 + AZD7762; first compound 0.002 µM) | relative viability (YM155 + AZD7762; first compound 0.006325 µM) | relative viability (YM155 + AZD7762; first compound 0.02 µM) | relative viability (YM155 + AZD7762; first compound 0.06325 µM) | relative viability (Quizartinib + Pictilisib; first compound 0.001 µM) | relative viability (Quizartinib + Pictilisib; first compound 0.003162 µM) | relative viability (Quizartinib + Pictilisib; first compound 0.01 µM) | relative viability (Quizartinib + Pictilisib; first compound 0.03162 µM) | relative viability (Quizartinib + Pictilisib; first compound 0.1 µM)
NCI-H2342 | 0.749 | 0.763 | 0.678 | 0.729 | 0.724 | 0.738 | 0.71 | 0.829 | 0.757 | 0.612 | 0.379 | 0.515 | 0.383 | – | – | – | – | –
CAL-12T | – | – | – | – | – | 0.281 | 0.337 | 0.346 | 0.333 | 0.621 | 0.715 | 0.672 | 0.534 | 0.47 | 0.536 | 0.308 | 0.398 | 0.547
NCI-H1395 | 0.718 | 0.74 | 0.728 | 0.718 | 0.774 | 1.04 | 1.02 | 1.08 | 1.2 | 0.351 | 0.41 | 0.4 | 0.434 | 0.478 | 0.65 | 0.661 | 0.695 | 0.667
NCI-H1299 | – | – | – | – | – | – | – | – | – | – | – | – | – | 0.835 | 0.735 | 0.797 | 0.726 | 0.881
NCI-H1703 | – | – | – | – | – | – | – | – | – | 0.0937 | 0.114 | 0.138 | 0.132 | 0.3 | 0.183 | 0.216 | 0.154 | 0.24
HCC-15 | 0.57 | 0.651 | 0.612 | 0.521 | 0.615 | 0.331 | 0.389 | 0.283 | 0.423 | 0.661 | 1.28 | 1.19 | 1.17 | 0.433 | 0.788 | 0.755 | 0.607 | 0.707
SW 900 | 0.42 | 0.392 | 0.422 | 0.372 | 0.336 | – | 0.922 | 0.843 | 0.809 | – | 0.543 | 0.825 | 0.64 | – | – | – | – | –
NCI-H661 | 0.55 | 0.5 | 0.577 | 0.561 | 0.599 | 0.496 | 0.558 | 0.598 | 0.525 | – | – | – | – | 0.425 | 0.388 | 0.364 | – | 0.467
NCI-H647 | 0.32 | 0.369 | 0.437 | 0.405 | 0.549 | 0.342 | 0.456 | 0.463 | 0.472 | 0.429 | 0.509 | 0.407 | 0.0872 | 0.466 | 0.434 | 0.536 | – | 0.474
H3255 | – | 0.576 | 0.674 | 0.601 | 0.738 | 0.583 | 0.666 | 0.632 | 0.542 | 0.886 | 0.913 | 1.05 | 0.796 | 0.486 | 0.404 | 0.507 | 0.471 | 0.47
NCI-H2405 | 0.723 | 0.72 | 0.789 | 0.737 | 0.87 | 0.661 | 0.595 | 0.596 | 0.384 | 0.609 | 0.656 | 0.578 | 0.39 | 0.614 | 0.442 | 0.327 | 0.44 | 0.503
NCI-H1666 | 0.649 | 0.723 | 0.777 | 0.717 | 0.783 | 0.865 | 0.896 | 0.874 | 0.903 | 0.821 | 0.824 | 0.907 | 0.847 | 0.458 | 0.325 | 0.415 | 0.399 | 0.264
NCI-H650 | 0.319 | 0.286 | 0.342 | 0.365 | 0.384 | 1.05 | 0.875 | 0.967 | 1.04 | 0.835 | 0.958 | 1.08 | 0.776 | 0.992 | 0.814 | 0.923 | 0.923 | 1.12
COR-L23 | 0.436 | 0.457 | 0.398 | 0.372 | 0.467 | 0.629 | 0.577 | 0.566 | 0.192 | – | – | – | – | 0.535 | 0.758 | 0.698 | 0.589 | 0.763
NCI-H1734 | 0.504 | 0.459 | 0.656 | 0.499 | 0.485 | 0.672 | 0.658 | 0.724 | 0.741 | 0.489 | 0.582 | 0.614 | 0.539 | 0.508 | 0.472 | 0.477 | 0.411 | 0.44
UMC-11 | – | 0.708 | 0.638 | 0.485 | 0.691 | 0.56 | 0.745 | 0.771 | 0.739 | – | – | – | – | 0.522 | 0.779 | 0.836 | 0.742 | 0.885
NCI-H596 | 1.03 | 0.938 | 1.09 | 0.993 | 0.901 | 0.783 | 0.784 | 0.744 | 0.859 | 0.989 | 0.98 | 1.28 | 1.11 | 0.427 | 0.332 | 0.455 | 0.418 | 0.416
NCI-H2228 | – | – | – | – | – | 0.485 | 0.444 | 0.565 | 0.589 | – | – | – | – | 0.364 | 0.312 | 0.456 | 0.386 | 0.464
EPLC-272H | 0.301 | 0.417 | 0.375 | 0.376 | 0.382 | 0.294 | 0.27 | 0.335 | 0.302 | 0.227 | 0.296 | 0.196 | 0.253 | 0.314 | 0.391 | 0.405 | 0.323 | 0.398
RERF-LC-KJ | 0.628 | 0.73 | 0.694 | 0.429 | 0.628 | 0.896 | 0.952 | 0.942 | 0.707 | 1.04 | 1.19 | 1.06 | 1.03 | 0.468 | 0.586 | 0.735 | 0.538 | 0.515
NCI-H1793 | 0.543 | 0.404 | 0.534 | 0.534 | 0.466 | 0.4 | 0.452 | 0.432 | 0.407 | 0.329 | 0.619 | 0.532 | 0.46 | 0.304 | 0.398 | 0.249 | 0.362 | 0.334
